Assay [1] addresses T1, human melanocortin-4 receptor (MC-4R) (Homo sapiens, UniProt P32245).
T1 construct: expressed in transfected cells; host or cells: HEK293
The assay can be described thus: Membrane binding assay: competition with fluorescence labeled NDP-alpha-MSH, fluorescence polarization. As to conditions: HEK293 cell membrane preparations expressing human MC-4R, read-out: hMC-4R binding assay IC50.

For assay [2], the target named is T1, human melanocortin-4 receptor (MC-4R). The assay can be described thus: Functional assay: agonistic activity, cAMP production in membrane preparations compared with NDP-alpha-MSH, fluorescence polarization. The class given is biochemical. As to conditions: for Emax: cAMP produced compared to stimulation with NDP-alpha-MSH, read-out: % activation functional assay.

Bounds are passed on as bounds.

T1 sequence (P32245 whole entry): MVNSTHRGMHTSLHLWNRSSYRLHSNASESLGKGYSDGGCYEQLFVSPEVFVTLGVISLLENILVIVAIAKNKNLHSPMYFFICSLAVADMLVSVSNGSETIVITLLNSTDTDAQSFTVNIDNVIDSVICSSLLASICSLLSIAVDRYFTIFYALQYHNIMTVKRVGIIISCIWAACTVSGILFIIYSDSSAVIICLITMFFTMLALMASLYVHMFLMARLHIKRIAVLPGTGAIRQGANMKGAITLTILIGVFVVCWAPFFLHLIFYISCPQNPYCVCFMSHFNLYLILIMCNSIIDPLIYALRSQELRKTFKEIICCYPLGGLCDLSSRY

With `CC[C@H](COc1cccnc1C1CCN(C(=O)[C@@H](Cc2ccc(Cl)cc2Cl)NC(=O)N2CCC[C@H]2C(C)(C)O)CC1)N(C)C` [Example 126], the IC50 in assay [1] was no more than 100 nM. In addition, in assay [2], the Emax is -8%.

Turning to `CC[C@H](COc1cc(F)cnc1C1CCN(C(=O)[C@@H](Cc2ccc(Cl)cc2Cl)NC(=O)N2CCCC2)CC1)N(C)C` [Example 60], the IC50 in assay [1] is no more than 100 nM. The Emax in assay [2] is -12%.

Consider `COC[C@H](CN(C)C)Oc1cccnc1C1CCN(C(=O)[C@@H](Cc2ccc(Cl)cc2Cl)NC(=O)N2CCCC2)CC1` [Example 46], for which, in assay [1], the IC50 was greater than 1000 nM. The Emax in assay [2] was -13%.

Take `CC[C@@H](COc1cccnc1C1CCN(C(=O)[C@@H](Cc2ccc(Cl)cc2Cl)NC(=O)N2CCCC2)CC1)N(C)C` [Example 33]: the IC50 in assay [1] fell in the range of 100 to 1000 nM. Further, the Emax in assay [2] stood at 0%.

With `CC[C@@H](CN(C)C)Oc1cccnc1C1CCN(C(=O)[C@@H](Cc2ccc(Cl)cc2Cl)NC(=O)N2CC(O)C2)CC1` [Example 136], in assay [1], the IC50 is no more than 100 nM. Moreover, the Emax in assay [2] was determined as 10%.

For `CC[C@H](COc1cccnc1C1CCN(C(=O)[C@@H](Cc2ccc(Cl)cc2Cl)NC(=O)N(C)CC)CC1)N(C)C` [Example 101], in assay [1], the half-inhibitory concentration (IC50) was no more than 100 nM. Also, the Emax in assay [2] was found to be 5%.

As for `CN1CCC[C@@H]1COc1cccnc1C1CCN(C(=O)[C@@H](Cc2ccc(Cl)cc2Cl)NC(=O)N2CCCC2)CC1` [Example 45], in assay [1], the IC50 is no more than 100 nM. Moreover, the Emax in assay [2] is -27%. Moreover, the EC50 in assay [2] (cAMP production, membrane preparations from HEK293 cells expressing human MC-4R, read-out: hMC-4R functional assay EC50) is 100 to 1000 nM.

Consider `CC[C@H](COc1cccnc1C1CCN(C(=O)[C@@H](Cc2ccc(Cl)cc2Cl)NC(=O)N(C)CC2(C)COC2)CC1)N(C)C` [Example 134], for which, in assay [1], the IC50 was no more than 100 nM. Further, the Emax in assay [2] was -2%.

`C[C@H](COc1cccnc1C1CCN(C(=O)[C@@H](Cc2ccc(Cl)cc2Cl)NC(=O)N2CCCC2)CC1)N(C)C` [Example 25]: the IC50 in assay [1] is no more than 100 nM. Further, in assay [2], the Emax was determined as 0%.

On to `CN1CCOC[C@@H](Oc2cccnc2C2CCN(C(=O)[C@@H](Cc3ccc(Cl)cc3Cl)NC(=O)N3CCCC3)CC2)C1` [Example 52], for which the IC50 in assay [1] fell in the range of 100 to 1000 nM. The Emax in assay [2] stood at 4%.

Turning to `CC[C@H](COc1cc(Cl)cnc1C1CCN(C(=O)[C@@H](Cc2ccc(C)cc2C)NC(=O)N2CCCC2)CC1)N(C)C` [Example 73], in assay [1], the IC50 was no more than 100 nM. For the same molecule, in assay [2], the Emax was -15%.

Turning to `CC[C@H](COc1cccnc1C1CCN(C(=O)[C@@H](Cc2ccc(Cl)cc2Cl)NC(=O)N2CC[C@H](CO)C2)CC1)N(C)C` [Example 114], the IC50 in assay [1] was no more than 100 nM. In addition, in assay [2], the Emax was -3%.

With `CC[C@H](COc1cccnc1C1CCN(C(=O)[C@@H](Cc2ccc(Cl)cc2Cl)NC(=O)N2CC[C@H](OC)C2)CC1)N(C)C` [Example 109], the IC50 in assay [1] was no more than 100 nM. In assay [2], the Emax was -11%.

In the case of `CC[C@H](COc1cc(F)cnc1C1CCN(C(=O)[C@@H](Cc2ccc(Cl)cc2Cl)NC(=O)N2CC(O)C2)CC1)N(C)C` [Example 75], in assay [1], the IC50 is no more than 100 nM. For the same molecule, the Emax in assay [2] is -1%.

As for `CC[C@H](CN(C)C)Oc1cccnc1C1CCN(C(=O)[C@@H](Cc2ccc(Cl)cc2Cl)NC(=O)N2CCCC2)CC1` [Example 34], the IC50 in assay [1] was greater than 1000 nM. The Emax in assay [2] was -3%.

In the case of `CC[C@H](COc1cccnc1C1CCN(C(=O)[C@@H](Cc2ccc(Cl)cc2Cl)NC(=O)N2CCC(F)(F)CC2)CC1)N1CCCC1` [Example 83], the IC50 in assay [1] was no more than 100 nM. Also, in assay [2], the Emax was 0%.

For `CN1CCN(c2cccnc2C2CCN(C(=O)[C@@H](Cc3ccc(Cl)cc3Cl)NC(=O)N3CCCC3)CC2)CC1` [Example 23], the IC50 in assay [1] lay within 100 to 1000 nM. Further, the Emax in assay [2] amounted to 0%.

As for `C#CC1(O)CN(C(=O)N[C@H](Cc2ccc(Cl)cc2Cl)C(=O)N2CCC(c3ncccc3OC[C@@H](CC)N(C)C)CC2)C1` [Example 118], the IC50 in assay [1] is no more than 100 nM. Also, the Emax in assay [2] was determined as 11%.

Take `CN1CCO[C@H](COc2cccnc2C2CCN(C(=O)[C@@H](Cc3ccc(Cl)cc3Cl)NC(=O)N3CCCC3)CC2)C1` [Example 49]: the IC50 in assay [1] lay in the range of 100 to 1000 nM. Also, the Emax in assay [2] was -3%.

As to `CC[C@H](COc1cccnc1C1CCN(C(=O)[C@@H](Cc2ccc(Cl)cc2Cl)NC(=O)N2CCC(O)(CC3CC3)C2)CC1)N(C)C` (stereo partly drawn) [Example 130], the IC50 in assay [1] was no more than 100 nM. In addition, the Emax in assay [2] is -2%.

Regarding `CC[C@@H](CN1CCCC1)Oc1nccnc1C1CCN(C(=O)[C@@H](Cc2ccc(Cl)cc2Cl)NC(=O)N2CCCC2)CC1` [Example 63], the IC50 in assay [1] is no more than 100 nM. For the same molecule, the Emax in assay [2] worked out at 0%.

Regarding `Cc1ccc(C2CCN(C(=O)[C@@H](Cc3ccc(Cl)cc3Cl)NC(=O)N3CCCC3)CC2)c(OCCN2CCCC2)n1` [Example 6], the IC50 in assay [1] is no more than 100 nM. Moreover, in assay [2], the Emax came to 0%.

As for `CN1CCOC[C@H](Oc2cccnc2C2CCN(C(=O)[C@@H](Cc3ccc(Cl)cc3Cl)NC(=O)N3CCCC3)CC2)C1` [Example 48], the IC50 in assay [1] was no more than 100 nM. In addition, in assay [2], the Emax was determined as 0%.

As to `CC[C@H](COc1cccnc1C1CCN(C(=O)[C@@H](Cc2ccc(Cl)cc2Cl)NC(=O)N2CC(C)(O)C2)CC1)N1CCCC1` [Example 99], the IC50 in assay [1] was no more than 100 nM. Moreover, the Emax in assay [2] worked out at 0%.

As for `CN1CC[C@H](Oc2cccnc2C2CCN(C(=O)[C@@H](Cc3ccc(Cl)cc3Cl)NC(=O)N3CCCC3)CC2)C1` [Example 42], the IC50 in assay [1] fell in the range of 100 to 1000 nM. Besides, in assay [2], the Emax is -1%.

`CC[C@H](COc1cccnc1C1CCN(C(=O)[C@@H](Cc2ccc(Cl)cc2Cl)NC(=O)N(CCOC)CCOC)CC1)N1CCCC1` [Example 85]: the IC50 in assay [1] was no more than 100 nM. Also, the Emax in assay [2] came to 0%.

Turning to `CC[C@H](COc1cccnc1C1CCN(C(=O)[C@@H](Cc2ccc(Cl)cc2Cl)NC(=O)N2CC(OC(C)=O)C2)CC1)N1CCCC1` [Example 100], in assay [1], the IC50 is no more than 100 nM. Also, the Emax in assay [2] is -7%.

Take `CC[C@H](COc1cccnc1C1CCN(C(=O)[C@@H](Cc2ccc(Cl)cc2Cl)NC(=O)N2CC[C@@H](O)C2)CC1)N(C)C` [Example 116]: the IC50 in assay [1] is no more than 100 nM. Moreover, the Emax in assay [2] was -1%.

In the case of `CC[C@H](COc1cccnc1C1CCN(C(=O)[C@@H](Cc2ccc(Cl)cc2Cl)NC(=O)N(C)CCOC)CC1)N1CCCC1` [Example 87], the IC50 in assay [1] was no more than 100 nM. For the same molecule, the Emax in assay [2] was 0%.

Turning to `CC[C@@H](CN1CCCC1)Oc1ncccc1C1CCN(C(=O)[C@@H](Cc2ccc(Cl)cc2Cl)NC(=O)N2CCCC2)CC1` [Example 7], in assay [1], the IC50 was no more than 100 nM. Moreover, the Emax in assay [2] amounted to 0%.

As to `CC[C@H](COc1cccnc1C1CCN(C(=O)[C@@H](Cc2ccc(Cl)cc2Cl)NC(=O)N2CCC[C@@H]2CO)CC1)N(C)C` [Example 107], the IC50 in assay [1] was no more than 100 nM. Besides, the Emax in assay [2] was -2%.

`CC[C@H](COc1cccnc1C1CCN(C(=O)[C@@H](Cc2ccc(Cl)cc2Cl)NC(=O)N2CCSC2)CC1)N1CCCC1` [Example 88]: in assay [1], the IC50 was no more than 100 nM. In addition, the Emax in assay [2] worked out at 0%.

Regarding `CC[C@H](COc1nc(C)ncc1C1CCN(C(=O)[C@@H](Cc2ccc(Cl)cc2Cl)NC(=O)N2CCCC2)CC1)N(C)C` [Example 64], in assay [1], the IC50 is no more than 100 nM. Besides, the Emax in assay [2] came out at 13%.

Consider `O=C(N[C@H](Cc1ccc(Cl)cc1Cl)C(=O)N1CCC(c2ncccc2O[C@H]2CN3CCC2CC3)CC1)N1CCCC1` [Example 26], for which the IC50 in assay [1] was in the range of 100 to 1000 nM. In addition, in assay [2], the Emax was determined as 0%.

Consider `CC[C@@H](CN1CCCC1)Oc1cnccc1C1CCN(C(=O)[C@@H](Cc2ccc(Cl)cc2Cl)NC(=O)N2CCCC2)CC1` [Example 11], for which the IC50 in assay [1] was no more than 100 nM. For the same molecule, the Emax in assay [2] stood at 0%.

For the molecule `CN1CCC(Oc2cccnc2C2CCN(C(=O)[C@@H](Cc3ccc(Cl)cc3Cl)NC(=O)N3CCCC3)CC2)CC1` [Example 38], in assay [1], the IC50 fell in the range of 100 to 1000 nM. Further, the Emax in assay [2] is -5%.

In the case of `O=C(N[C@H](Cc1ccc(Cl)cc1Cl)C(=O)N1CCC(c2cccnc2OCCN2CCCC2)CC1)N1CCCC1` [Example 5], the IC50 in assay [1] was no more than 100 nM. The Emax in assay [2] worked out at 0%.

Turning to `CC[C@H](COc1cccnc1C1CCN(C(=O)[C@@H](Cc2ccc(Cl)cc2Cl)NC(=O)N2CC[C@H](OC(C)=O)C2)CC1)N(C)C` [Example 117], the IC50 in assay [1] was no more than 100 nM. Moreover, the Emax in assay [2] is 0%.

Turning to `CC[C@H](COc1cccnc1C1CCN(C(=O)[C@@H](Cc2ccc(Cl)cc2Cl)NC(=O)N2CC[C@@H](N(C)C)C2)CC1)N(C)C` [Example 132], the IC50 in assay [1] was no more than 100 nM. Also, in assay [2], the Emax is -4%.

In the case of `Cc1ccc(C2CCN(C(=O)[C@@H](Cc3ccc(Cl)cc3Cl)NC(=O)N3CCCC3)CC2)c(NCCN2CCCC2)n1` [Example 1], in assay [1], the IC50 is no more than 100 nM. Further, in assay [2], the Emax stood at 0%.

On to `CC[C@H](COc1cccnc1C1CCN(C(=O)[C@@H](Cc2ccc(Cl)cc2Cl)NC(=O)N2CCC(O)(C(F)(F)F)C2)CC1)N(C)C` (stereo partly drawn) [Example 128], for which the IC50 in assay [1] was no more than 100 nM. Also, the Emax in assay [2] was -8%.

For `CC[C@H](COc1cccnc1C1CCN(C(=O)[C@@H](Cc2ccc(Cl)cc2Cl)NC(=O)N2CC[C@H](O)C2)CC1)N1CCCC1` [Example 89], the IC50 in assay [1] is no more than 100 nM. Moreover, the Emax in assay [2] turned out to be 0%.

For the molecule `CC[C@H](COc1cccnc1C1CCN(C(=O)[C@@H](Cc2ccc(Cl)cc2Cl)NC(=O)N2CCC(F)CC2)CC1)N1CCCC1` [Example 82], in assay [1], the IC50 is no more than 100 nM. Moreover, in assay [2], the Emax is 0%.

For the molecule `CC[C@@H](CN(C)C)Oc1cc(F)cnc1C1CCN(C(=O)[C@@H](Cc2ccc(Cl)cc2Cl)NC(=O)N2CCCC2)CC1` [Example 61], the IC50 in assay [1] was no more than 100 nM. Further, in assay [2], the Emax was 1%.

`O=C(N[C@H](Cc1ccc(Cl)cc1Cl)C(=O)N1CCC(c2ncccc2OC2CN3CCC2CC3)CC1)N1CCCC1` (stereo partly drawn) [Example 29]: the IC50 in assay [1] lay within 100 to 1000 nM. In addition, the Emax in assay [2] was 0%.

As for `CC[C@H](COc1cccnc1C1CCN(C(=O)[C@@H](Cc2ccc(Cl)cc2Cl)NC(=O)N2CCC(C)(O)C2)CC1)N(C)C` (stereo partly drawn) [Example 110], the IC50 in assay [1] was no more than 100 nM. Also, the Emax in assay [2] was 0%.

The record behind these values is US20100249093A1, “Substituted Heteroarylpiperidine Derivatives As Melanocortin-4 Receptor Modulators” (SANTHERA PHARMACEUTICALS (SCHWEIZ) AG, priority 2007, published 2010).
